The target of one experiment is T1, S. aureus RnpA (Staphylococcus aureus, UniProt P0A0H5).
T1 construct: hexahistidine (His6) (N); made in house; host or cells: E. coli BL21 (DE3), plasmid pEXP5-nt
T1 sequence (P0A0H5 1-117): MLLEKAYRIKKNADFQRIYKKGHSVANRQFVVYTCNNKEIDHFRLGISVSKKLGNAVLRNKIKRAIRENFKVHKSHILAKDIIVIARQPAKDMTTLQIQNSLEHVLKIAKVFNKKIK
The experiment in a line: RnpA-mediated in vitro spa mRNA degradation assay. It counts as biochemical. The settings on record: read-out: Degradation IC50. As for the experimental part:
RnpA-mediated RNA degradation assays were performed as previously described. Briefly, 1 pmol of spa mRNA was incubated with 5 pmol RnpA at 37 °C for 30 min in reaction buffer (50 mM Tris-HCl pH 8.0, 2 mM NaCl, 2 mM MgCl2) in the absence or presence of the indicated compound (≤500 µM). The inhibitory effects of the test compounds were calculated using Biorad ImageLab densitometry software to measure the signal intensity of the spa band in the negative control (spa alone), positive control (RnpA + spa + DMSO), and experimental samples (RnpA + spa + test compound) separated on a 1.2% formaldehyde-agarose gel. Background signal from the positive control sample sometimes resulted due to incomplete degradation of transcripts. Thus, the signal intensity of the positive control was taken into account when calculating the percent inhibition. The raw signals from the positive (+RnpA) and negative (-RnpA) controls were converted into percentage, by normalizing the positive control (+RnpA) signal to 0% RnpA inhibition and the negative control (-RnpA) to 100% RnpA inhibition. Similarly, the raw signals from the test compounds were reported as percent RnpA inhibition using the following equation: [(experimental−positive control)/(negative control−positive control)] × 100. […] To assess IC50, % RnpA degradation inhibition was plotted against compound concentration; a linear best fit equation was generated and utilized to calculate the IC50.

Experiment [1] concerns norA mRNA in S. aureus UAMS-1 cells. The experiment in a line: Cellular norA mRNA turnover (qRT-PCR after rifampin arrest). It counts as cell-based, Staphylococcus aureus. Conditions: 0.5× MIC for 30 min; 5 min post-transcriptional arrest; mock 99%. Here is the method: (§1) S. aureus mRNA half-life determinations were performed as previously described. […] Rifampin (Sigma-Aldrich) was added to the culture at a final concentration of 200 μg·mL^−1 to inhibit de novo transcript synthesis. Half of the culture was immediately removed and combined with an equal volume of ice cold acetone:ethanol (1:1 v/v). The remaining culture was returned to the shaking 37 °C incubator for an additional 5 min and then subsequently combined with an equal volume of ice cold acetone:ethanol (1:1 v/v) and stored at −80 °C until processing, as described below.
For total bacterial RNA isolation, cell suspensions were thawed on ice, centrifuged at 3000 rpm for 10 min at 4 °C, the resulting cell pellets were resuspended in ice-cold TE buffer (10 mM Tris-HCl, pH 8.0, 1 mM EDTA), and transferred into a FastPrep bead beater tube containing 0.1 mm silica spheres (MP Biomedicals; Santa Ana, CA, USA). Mixtures were homogenized at 5 m·s^−1 for 20 s, rested on ice for 5 min, and then homogenized again at 4.5 m·s^−1 in a FastPrep-24 instrument. Cellular debris were collected by centrifugation at 13,000 rpm for 15 min at 4 °C, whereas bacterial RNA was isolated from the supernatant using Qiagen RNeasy Mini Kits and miRNeasy Mini Kits were used to isolate total bacterial RNA, following the manufacturer’s instructions. RNA quantity and quality were measured using a NanoDrop 2000 spectrophotometer (ThermoFisher Scientific). For qRT-PCR, 1 μg of total bacterial RNA was treated with 3 units of DNase I (Ambion; Carlsbad, CA, USA) for 1 h at 37 °C to remove any DNA contaminants. RNA cleanup was performed using the Qiagen RNeasy Mini Kit. Subsequently, the BioRad iScript cDNA Synthesis Kit (Hercules, CA, USA) was used to convert 200 ng of RNA into cDNA, which was amplified using the BioRad iQ SYBR Green Supermix per the manufacturer’s instructions and fluorescence was read on the Biorad CFX 96 Connect machine. Transcript levels were compared to the internal control 16S rRNA (ΔΔCt method), and plotted as a fold change compared to control. The following primer pairs were used in this study for qRT-PCR: norA forward—[…] and norA reverse-[…] CTAAG; -15 ptRNA^Tyr forward-[…] and tRNA^Tyr reverse-TGGTG […]; 16S rRNA forward-[…] and 16S rRNA reverse-[…].

The subject of experiment [2] is all cellular mRNA species of S. aureus UAMS-1. The experiment in a line: Global cellular mRNA turnover (Affymetrix GeneChip). Conditions: 0.5× MIC; mock (DMSO) 84.8%. It counts as cell-based, Staphylococcus aureus. As for the experimental part:
as §1
Briefly, following the manufacturer’s instructions for prokaryotic arrays, reverse transcription was carried out on 10 µg of total bacterial RNA and control eukaryotic poly(A) RNA (Affymetrix). […] Transcript signal intensity values were read using the Affymetrix GeneChip® Scanner, and intensity values for each ORF and intergenic region were averaged among the biological replicates (n ≥ 2). Signals were normalized to the control poly(A) cDNA intensity values using GeneSpring 7.2 software (Agilent Technologies, Redwood City, CA, USA) and the number of transcripts with a decrease in transcript signal of >2-fold were determined.

In experiment [3] the test system is S. aureus RN4220 pML100::rnpA-KD. The experiment in a line: Cellular RnpA depletion hypersusceptibility growth curve. It counts as cell-based, Staphylococcus aureus. The settings on record: […] MIC JC2 or 0.5× MIC RNPA2000. As for the experimental part: 100 μL of each culture was transferred to a 96 well flat bottom plate in duplicate and growth monitored by OD600 reading every 30 min over 8 h at 37 °C. Hypersusceptibility growth curves were averaged from two biological replicates in technical duplicate.

The next experiment concerns S. aureus USA300. In words: MIC against clinical strain USA300. It counts as cell-based, Staphylococcus aureus.

The text below walks through data of PMC6627331, “Identification of Small Molecule Inhibitors of Staphylococcus aureus RnpA” (Antibiotics, 2019).

SMILES strings stand for the structures. ≈ marks a conversion by molar mass, not a printed value. Read-outs that look alike come from different tables or passages of the source.

Regarding `CC1CCCCN1C(=O)Nc1cc(Cl)cc(Cl)c1` (stereo not drawn) [JC2], the IC50 at S. aureus RnpA turned out to be 180 µM. The “norA mRNA degradation” value in experiment [1] was 27%. Also, the “transcript species with a half-life of ≤5 min” value in experiment [2] was found to be 51.6%. The “growth of RnpA-depleted cells (RnpA-KD) versus vector cells” value in experiment [3] is reported as “displayed a growth defect”. Also, the MIC turned out to be 0.5 µg/mL (≈ 1.74 µM) against S. aureus USA300 and 0.5 µg/mL (≈ 1.74 µM) in the experiment on S. aureus USA300 (Staphylococcus aureus, read-out: MIC).
